Laboratory results published in paper PMC4603705, “A bioinspired peptide scaffold with high antibiotic activity and low in vivo toxicity” (Scientific Reports, 2015).
≈ marks a conversion by molar mass, not a printed value. Read-outs that look alike come from different tables or passages of the source. Bridge positions count the residues as written; N and C are the ends. Square brackets hold non-standard residues; d marks the D form. Peptide text beside a SMILES is read from it. * marks the point of attachment. Decanoyl = CCCCCCCCCC(=O)*; Nonanoyl = CCCCCCCCC(=O)*; Dab = NCC[C@H](N)C(=O)O

Key:
S. aureus ATTC 6538 = assay: microbe, parasite or virus in culture; format: cell-based, Staphylococcus aureus; conditions: for MIC S. a.: Supplementary Table S1, S. aureus; for MIC S. aureus: ATTC 6538
Protocol: (§1) MICs were measured after 18–20 h of incubation in sterile 96-well plates (Corning Costar 3598 microtiter plates) in Mueller Hinton Broth (MHB) culture medium, (Difco, USA), according to well known in vitro protocols. Bacterial strains in Table 1 were: P. aeruginosa ATTC 9027, E. coli ATTC 8739, S. aureus ATTC 6538, and E. faecalis ATTC 29212. MICs shown in table 4 were performed by Mary Conrad at Cubist Pharmaceuticals (Lexington, MA) in non-binding surface plates.

P. aeruginosa ATTC 9027 = format: cell-based, Pseudomonas aeruginosa; conditions: for MIC P. a.: Supplementary Table S1, P. aeruginosa; for MIC P. aeruginosa: ATTC 9027
Protocol: as §1

E. coli ATTC 8739 = format: cell-based, Escherichia coli; conditions: for MIC E. c.: Supplementary Table S1, E. coli; for MIC E. coli: ATTC 8739
Protocol: as §1

| Molecule | MIC S. a. (S. aureus ATTC 6538) | MIC P. a. (P. aeruginosa ATTC 9027) | MIC E. c. (E. coli ATTC 8739) | further results |
| --- | --- | --- | --- | --- |
| C9-Dab[(C=NH)NH2]-Thr-Dab-Cys-Dab-Phe-Leu-Dab[(C=NH)NH2]-Dab-Cys [Analog 15] | > 32 mg/L | 8 mg/L | 4 mg/L |  |
| C9-Dab-Thr-Dab-Cys-Dab-Phe-Met-Dab-Dab-Cys [Analog 19] | 32 mg/L | 16 mg/L | 4 mg/L |  |
| CCCCCCCCCC(=O)N[C@@H](CCN)C(=O)N[C@H](C(=O)N[C@@H](CCN)C(=O)N[C@H]1CSSC[C@H](C(N)=O)NC(=O)[C@H](CCN)NC(=O)[C@H](CCN)NC(=O)[C@H](CC(C)C)NC(=O)[C@@H](Cc2ccccc2)NC(=O)[C@H](CCN)NC1=O)[C@@H](C)O [Analog 37, decanoyl -Dab-Thr-Dab-Cys-Dab-Phe-Leu-Dab-Dab-Cys] (Decanoyl-[Dab]T[Dab]C[Dab][dF]L[Dab][Dab][dC]-NH2; disulfide 4-10) |  |  |  | MIC S. aureus (S. aureus ATTC 6538): 8 mg/L (≈ 6.46 µM); MIC P. aeruginosa (P. aeruginosa ATTC 9027): 4 mg/L (≈ 3.23 µM); MIC E. coli (E. coli ATTC 8739): 2 mg/L (≈ 1.62 µM) |
| C9-Dap[(C=NH)NH2]-Thr-Dab-Cys-Dab-Phe-Leu-Dap[(C=NH)NH2]-Dab-Cys [Analog 14] | 16 mg/L | 16 mg/L | 2 mg/L |  |
| CCCCCCCCCC(=O)N[C@@H](CCCNC(=N)N)C(=O)N[C@H](C(=O)N[C@@H](CCN)C(=O)N[C@H]1CSSC[C@@H](C(N)=O)NC(=O)[C@H](CCN)NC(=O)[C@H](CCCNC(=N)N)NC(=O)[C@H](CC(C)C)NC(=O)[C@@H](Cc2ccccc2)NC(=O)[C@H](CCN)NC1=O)[C@@H](C)O [Analog 36, decanoyl-Arg-Thr-Dab-Cys-Dab-Phe-Leu-Arg-Dab-Cys] (Decanoyl-RT[Dab]C[Dab][dF]LR[Dab]C-NH2; disulfide 4-10) |  |  |  | MIC S. aureus (S. aureus ATTC 6538): 16 mg/L (≈ 11.9 µM); MIC P. aeruginosa (P. aeruginosa ATTC 9027): 8 mg/L (≈ 5.93 µM); MIC E. coli (E. coli ATTC 8739): 8 mg/L (≈ 5.93 µM) |
| C9-Arg(NO2)-Thr-Dab-Cys-Dab-Phe-Leu-Arg(NO2)-Dab-Cys [Analog 16] | > 32 mg/L |  |  |  |
| C9-Arg-Thr-Dab-Ser-Dab-Phe-Leu-Arg-Dab-Ser [Analog 18] | 64 mg/L | 64 mg/L | 32 mg/L |  |
| C9-Arg-Thr-Dab-Cys-Dab-Phe-Leu-Arg-Dab-Cys [Analog 17] |  |  |  | MIC P. a. (P. aeruginosa ATTC 9027; listed as 17): 16 mg/L |
| CCCCCCCCC(=O)N[C@@H](CCN)C(=O)N[C@H](C(=O)N[C@@H](CCN)C(=O)N[C@H]1CSSC[C@@H](C(N)=O)NC(=O)[C@H](CCN)NC(=O)[C@H](CCN)NC(=O)[C@H](CC(C)C)NC(=O)[C@@H](Cc2ccccc2)NC(=O)[C@H](CCN)NC1=O)[C@@H](C)O [Analog 1, nonanoyl-Dab-Thr-Dab-Cys-Dab-Phe-Leu-Dab-Dab-Cys] (Nonanoyl-[Dab]T[Dab]C[Dab][dF]L[Dab][Dab]C-NH2; disulfide 4-10) |  |  |  | MIC P. aeruginosa (P. aeruginosa ATTC 9027): 8 mg/L (≈ 6.54 µM); MIC E. coli (E. coli ATTC 8739): 4 mg/L (≈ 3.27 µM) |
| CCCCCCCCC(=O)N[C@@H](CCCNC(=N)N)C(=O)N[C@H](C(=O)N[C@@H](CCN)C(=O)N[C@H]1CSSC[C@@H](C(N)=O)NC(=O)[C@H](CCN)NC(=O)[C@H](CCN)NC(=O)[C@H](CC(C)C)NC(=O)[C@@H](Cc2ccccc2)NC(=O)[C@H](CCN)NC1=O)[C@@H](C)O [Analog 2, nonanoyl-Arg-Thr-Dab-Cys-Dab-Phe-Leu-Dab-Dab-Cys] (Nonanoyl-RT[Dab]C[Dab][dF]L[Dab][Dab]C-NH2; disulfide 4-10) |  |  |  | MIC S. aureus (S. aureus ATTC 6538): >32 mg/L; MIC P. aeruginosa (P. aeruginosa ATTC 9027): 8 mg/L (≈ 6.25 µM); MIC E. coli (E. coli ATTC 8739): 8 mg/L (≈ 6.25 µM) |
| C9-Arg-Thr-Arg-Cys-Arg-Phe-Leu-Arg-Dab-Cys (RTRCRFLR; not fully specified; C9 acyl; Dab-Cys C-terminal; printed: Arg-Thr-Arg-Cys-Arg-Phe-Leu-Arg-) [Analog 11] | 16 mg/L | 128 mg/L | 16 mg/L |  |
| CCCCCCCCC(=O)N[C@@H](CCN)C(=O)N[C@H](C(=O)N[C@@H](CCCNC(=N)N)C(=O)N[C@H]1CSSC[C@@H](C(N)=O)NC(=O)[C@H](CCN)NC(=O)[C@H](CCN)NC(=O)[C@H](CC(C)C)NC(=O)[C@@H](Cc2ccccc2)NC(=O)[C@H](CCN)NC1=O)[C@@H](C)O [Analog 3, nonanoyl-Dab-Thr-Arg-Cys-Dab-Phe-Leu-Dab-Dab-Cys] (Nonanoyl-[Dab]TRC[Dab][dF]L[Dab][Dab]C-NH2; disulfide 4-10) |  |  |  | MIC S. aureus (S. aureus ATTC 6538): >32 mg/L; MIC P. aeruginosa (P. aeruginosa ATTC 9027): 4 mg/L (≈ 3.13 µM); MIC E. coli (E. coli ATTC 8739): 8 mg/L (≈ 6.25 µM) |
| CCCCCCCCC(=O)N[C@@H](CCN)C(=O)N[C@H](C(=O)N[C@@H](CCCNC(=N)N)C(=O)N[C@H]1CSSC[C@@H](C(N)=O)NC(=O)[C@H](CCN)NC(=O)[C@H](CCCNC(=N)N)NC(=O)[C@H](CC(C)C)NC(=O)[C@@H](Cc2ccccc2)NC(=O)[C@H](CCN)NC1=O)[C@@H](C)O [Analog 6, nonanoyl-Dab-Thr-Arg-Cys-Dab-Phe-Leu-Arg-Dab-Cys] (Nonanoyl-[Dab]TRC[Dab][dF]LR[Dab]C-NH2; disulfide 4-10) |  |  |  | MIC P. aeruginosa (P. aeruginosa ATTC 9027): 8 mg/L (≈ 5.99 µM); MIC E. coli (E. coli ATTC 8739): 8 mg/L (≈ 5.99 µM) |
| CCCCCCCCC(=O)N[C@@H](CCCNC(=N)N)C(=O)N[C@H](C(=O)N[C@@H](CCN)C(=O)N[C@H]1CSSC[C@H](C(N)=O)NC(=O)[C@H](CCN)NC(=O)[C@H](CCCNC(=N)N)NC(=O)[C@H](CC(C)C)NC(=O)[C@@H](Cc2ccccc2)NC(=O)[C@H](CCN)NC1=O)[C@@H](C)O [Analog 13, nonanoyl-Arg-Thr-Dab-Cys-Dab-Phe-Leu-Arg-Dab-Cys] (Nonanoyl-RT[Dab]C[Dab][dF]LR[Dab][dC]-NH2; disulfide 4-10) |  |  |  | MIC S. aureus (S. aureus ATTC 6538): 16 mg/L (≈ 12 µM); MIC P. aeruginosa (P. aeruginosa ATTC 9027): 8 mg/L (≈ 5.99 µM); MIC E. coli (E. coli ATTC 8739): 4 mg/L (≈ 2.99 µM) |
| CCCCCCCCC(=O)N[C@@H](CCN)C(=O)N[C@H](C(=O)N[C@@H](CCN)C(=O)N[C@H]1CSSC[C@@H](C(N)=O)NC(=O)[C@H](CCN)NC(=O)[C@H](CCCNC(=N)N)NC(=O)[C@H](CC(C)C)NC(=O)[C@@H](Cc2ccccc2)NC(=O)[C@H](CCN)NC1=O)[C@@H](C)O [Analog 4, nonanoyl-Dab-Thr-Dab-Cys-Dab-Phe-Leu-Arg-Dab-Cys] (Nonanoyl-[Dab]T[Dab]C[Dab][dF]LR[Dab]C-NH2; disulfide 4-10) |  |  |  | MIC S. aureus (S. aureus ATTC 6538): >32 mg/L; MIC P. aeruginosa (P. aeruginosa ATTC 9027): 2 to 4 mg/L; MIC E. coli (E. coli ATTC 8739): 8 mg/L (≈ 6.25 µM) |
| C9-Arg-Thr-Dab-Cys-Arg-Phe-Leu-Arg-Dab-Cys [Analog 9] | 16 mg/L | 128 mg/L | 16 mg/L |  |
| CCCCCCCCC(=O)N[C@@H](CCCNC(=N)N)C(=O)N[C@H](C(=O)N[C@@H](CCCNC(=N)N)C(=O)N[C@H]1CSSC[C@@H](C(N)=O)NC(=O)[C@H](CCCNC(=N)N)NC(=O)[C@H](CCCNC(=N)N)NC(=O)[C@H](CC(C)C)NC(=O)[C@@H](Cc2ccccc2)NC(=O)[C@H](CCN)NC1=O)[C@@H](C)O [Analog 10, nonanoyl-Arg-Thr-Arg-Cys-Dab-Phe-Leu-Arg-Arg-Cys] (Nonanoyl-RTRC[Dab][dF]LRRC-NH2; disulfide 4-10) |  |  |  | MIC S. aureus (S. aureus ATTC 6538): 32 mg/L (≈ 22.1 µM); MIC P. aeruginosa (P. aeruginosa ATTC 9027): 16 mg/L (≈ 11.1 µM); MIC E. coli (E. coli ATTC 8739): 32 mg/L (≈ 22.1 µM) |
| C9-Arg-Thr-Arg-Cys-Dab-Phe-Leu-Dab-Dab-Cys [Analog 7] | 32 mg/L | 32 mg/L | 32 mg/L |  |

Second part, led by results:

| MIC S. a. (S. aureus ATTC 6538) | MIC P. a. (P. aeruginosa ATTC 9027) | MIC E. c. (E. coli ATTC 8739) | Molecule | further results |
| --- | --- | --- | --- | --- |
| > 128 mg/L | > 128 mg/L | > 128 mg/L | C9-Arg-Thr-Dab-Cys-Dab-Gly-Leu-Arg-Dab-Cys [Analog 25] |  |
| 32 mg/L | 16 mg/L | 32 mg/L | C9-Arg-Thr-Dab-Cys-Dab-Leu-Leu-Arg-Dab-Cys [Analog 29] |  |
| 64 mg/L | 8 mg/L | 16 mg/L | C9-Arg-Thr-Dab-Cys-Dab-Phe-Thr-Arg-Dab-Cys [Analog 27] |  |
| 128 mg/L | 32 mg/L | 32 mg/L | C9-Arg-Thr-His-Cys-Dab-Phe-Leu-Arg-His-Cys [Analog 31] |  |
| 128 mg/L | 32 mg/L | 16 mg/L | C9-Lys-Thr-Dab-Cys-Dab-Phe-Leu-Lys-Dab-Cys [Analog 33] |  |
| 32 mg/L | 16 mg/L | 16 mg/L | C9-Arg-Thr-Arg-Cys-Dab-Phe-Met-Arg-Dab-Cys [Analog 22] |  |
| 128 mg/L | > 128 mg/L | 64 mg/L | C9-Arg-Thr-Dab-Cys-Dab-Phe-Gly-Arg-Dab-Cys [Analog 26] |  |
| 64 mg/L | 16 mg/L | 16 mg/L | C9-Orn-Thr-Dab-Cys-Dab-Phe-Leu-Orn-Dab-Cys [Analog 35] |  |
| > 32 mg/L | 8 mg/L |  | C9-Arg-Thr-Dab-Cys-Dab-Phe-Met-Arg-Dab-Cys [Analog 21] |  |
| 32 mg/L | 16 mg/L | 8 mg/L | C9-Arg-Thr-Lys-Cys-Dab-Phe-Leu-Arg-Lys-Cys [Analog 32] |  |
| > 128 mg/L | 32 mg/L | 32 mg/L | C9-Arg-Thr-Dab-Cys-Dab-Leu-Thr-Arg-Dab-Cys [Analog 30] |  |
| > 128 mg/L | > 128 mg/L | > 128 mg/L | C9-Arg-Thr-Dab-Cys-Dab-Gly-Gly-Arg-Dab-Cys [Analog 24] |  |
| 8 mg/L | 8 mg/L | 4 mg/L | C9-Arg-Thr-Dab-Cys-Dab-Trp-Leu-Arg-Dab-Cys [Analog 28] |  |
| 32 mg/L | 16 mg/L | 8 mg/L | C9-Arg-Thr-Orn-Cys-Dab-Phe-Leu-Arg-Orn-Cys [Analog 34] |  |
| 32 mg/L |  | 64 mg/L | C9-Arg-Thr-Dab-Cys-Dab-Phe-Leu-Arg-Dab-Cys [Analog 23] | MIC P. a. (P. aeruginosa ATTC 9027; listed as 23): 128 mg/L |
| > 32 mg/L |  | > 32 mg/L | C9-Dab-Thr-Dab-Cys-Dab-Phe-Met(O)-Dab-Dab-Cys [Analog 20] |  |
